Measurements from patent US20220411380A1, “ACID ADDITION SALT OF RORy REGULATOR” (JIANGSU HENGRUI MEDICINE CO., LTD., priority 2019, published 2022).

What was measured:
Format in all cases: physicochemical
[1] = DVS (dynamic vapor sorption) characterization; settings: for Crystalline form before and after DVS (XRPD comparison): 0-95% humidity change; for DVS weight change / Hygroscopicity: 25° C., 20.0% RH to 80.0% RH; for Hygroscopicity: DVS
Procedure: DVS refers to dynamic vapor sorption: The measurement was conducted with a Surface Measurement Systems advantage 2 at 25° C., starting from 50% humidity in humidity range of 0%-95% with a step size of 10%. The judging criterion was that the mass change of each gradient dM/dT is less than 0.002 and TMAX is less than 360 min in two circles.

[2] = Influencing factor study of crystalline form α of hydrochloride and crystalline form I of hydrobromide
Procedure: Sample of the crystalline form α of the hydrochloride and the crystalline form I of the hydrobromide of the compound of formula II were let stand open to examine the stability of the samples in conditions of illumination (4500 Lux), high temperature (40° C. and 60° C.) and high humidity (RH 75% and RH 92.5%) in a period of 30 days.

[3] = Long-term/accelerated stability study of crystalline form α of hydrochloride and crystalline form I of hydrobromide
Procedure: The crystalline form α of the hydrochloride of the compound of formula II was let stand in conditions of 25° C./60% RH and 40° C./75% RH to examine its stability.
The crystalline form I of the hydrobromide of the compound of formula II was let stand in conditions of 25° C./60% RH and 40° C./75% RH to examine its stability.

[4] = accelerated test condition, 70% humidity
[5] = extreme condition, 90% humidity
[6] = normal storage condition, 60% humidity/25° C.

In the case of `Br.NC(=O)C[C@H](c1ccc(S(=O)(=O)CC2CC2)cc1)c1nc2cc(-c3ccccc3OC(F)F)c(Cl)cc2[nH]1`, the “Crystalline form before and after DVS (XRPD comparison)” value [1] is reported as “crystalline form did not change during DVS”, the DVS weight change [1] is reported as 0.636% and the Hygroscopicity [1] is reported as “slightly hygroscopic”. For the same molecule, the Vapor sorption [1, 4] was “about 0.702%”, the Vapor sorption [1, 5] was “about 1.094%” and the Vapor sorption [1, 6] was “about 0.589%”. For the same molecule, the “Chiral purity (%)” value ([2]; 40° C., 7 days) was 99.293%, the Color and appearance ([2]; 40° C., 7 days) was “White solid” and the Crystalline form ([2]; 40° C., 7 days) was “Not changed”. For the same molecule, the “Main peak purity (%)” value ([2]; 40° C., 7 days) was 97.716%, the “Chiral purity (%)” value ([2]; 40° C., 14 days) was 99.165% and the Color and appearance ([2]; 40° C., 14 days) was “White solid”. For the same molecule, the Crystalline form ([2]; 40° C., 14 days) was “Not changed”, the “Main peak purity (%)” value ([2]; 40° C., 14 days) was 97.727% and the “Bromide ion content (%)” value ([2]; 40° C., 30 days) was 11.73%. For the same molecule, the “Chiral purity (%)” value ([2]; 40° C., 30 days) was 99.251%, the Color and appearance ([2]; 40° C., 30 days) was “White solid” and the Crystalline form ([2]; 40° C., 30 days) was “Not changed”. The “Main peak purity (%)” value ([2]; 40° C., 30 days) was 97.644%, the “Chiral purity (%)” value ([2]; 60° C., 7 days) was 99.299% and the Color and appearance ([2]; 60° C., 7 days) was “White solid”. The Crystalline form ([2]; 60° C., 7 days) was “Not changed”, the “Main peak purity (%)” value ([2]; 60° C., 7 days) was 97.645% and the “Chiral purity (%)” value ([2]; 60° C., 14 days) was 99.187%. The Color and appearance ([2]; 60° C., 14 days) was “White solid”, the Crystalline form ([2]; 60° C., 14 days) was “Not changed” and the “Main peak purity (%)” value ([2]; 60° C., 14 days) was 97.671%. For the same molecule, the “Bromide ion content (%)” value ([2]; 60° C., 30 days) was 11.50%, the “Chiral purity (%)” value ([2]; 60° C., 30 days) was 99.263% and the Color and appearance ([2]; 60° C., 30 days) was “White solid”. For the same molecule, the Crystalline form ([2]; 60° C., 30 days) was “Not changed”, the “Main peak purity (%)” value ([2]; 60° C., 30 days) was 97.630% and the “Chiral purity (%)” value ([2]; 75% RH, 7 days) was 99.293%. For the same molecule, the Color and appearance ([2]; 75% RH, 7 days) was “White solid”, the Crystalline form ([2]; 75% RH, 7 days) was “Not changed” and the “Main peak purity (%)” value ([2]; 75% RH, 7 days) was 97.687%. For the same molecule, the “Chiral purity (%)” value ([2]; 75% RH, 14 days) was 99.179%, the Color and appearance ([2]; 75% RH, 14 days) was “White solid” and the Crystalline form ([2]; 75% RH, 14 days) was “Not changed”. The “Main peak purity (%)” value ([2]; 75% RH, 14 days) was 97.705%, the “Bromide ion content (%)” value ([2]; 75% RH, 30 days) was 11.73% and the “Chiral purity (%)” value ([2]; 75% RH, 30 days) was 99.274%. The Color and appearance ([2]; 75% RH, 30 days) was “White solid”, the Crystalline form ([2]; 75% RH, 30 days) was “Not changed” and the “Main peak purity (%)” value ([2]; 75% RH, 30 days) was 97.676%. For the same molecule, the “Chiral purity (%)” value ([2]; 92.5% RH, 7 days) was 99.294%, the Color and appearance ([2]; 92.5% RH, 7 days) was “White solid” and the Crystalline form ([2]; 92.5% RH, 7 days) was “Not changed”. The “Main peak purity (%)” value ([2]; 92.5% RH, 7 days) was 97.706%, the “Chiral purity (%)” value ([2]; 92.5% RH, 14 days) was 99.175% and the Color and appearance ([2]; 92.5% RH, 14 days) was “White solid”. The Crystalline form ([2]; 92.5% RH, 14 days) was “Not changed”, the “Main peak purity (%)” value ([2]; 92.5% RH, 14 days) was 97.701% and the “Bromide ion content (%)” value ([2]; 92.5% RH, 30 days) was 11.55%. For the same molecule, the “Chiral purity (%)” value ([2]; 92.5% RH, 30 days) was 99.268%, the Color and appearance ([2]; 92.5% RH, 30 days) was “White solid” and the Crystalline form ([2]; 92.5% RH, 30 days) was “Not changed”. For the same molecule, the “Main peak purity (%)” value ([2]; 92.5% RH, 30 days) was 97.653%, the “Chiral purity (%)” value ([2]; 4500 Lux, 7 days) was 99.297% and the Color and appearance ([2]; 4500 Lux, 7 days) was “White solid”. The Crystalline form ([2]; 4500 Lux, 7 days) was “Not changed”, the “Main peak purity (%)” value ([2]; 4500 Lux, 7 days) was 97.683% and the “Chiral purity (%)” value ([2]; 4500 Lux, 14 days) was 99.152%. For the same molecule, the Color and appearance ([2]; 4500 Lux, 14 days) was “White solid”, the Crystalline form ([2]; 4500 Lux, 14 days) was “Not changed” and the “Main peak purity (%)” value ([2]; 4500 Lux, 14 days) was 97.660%. For the same molecule, the “Bromide ion content (%)” value ([2]; 4500 Lux, 30 days) was 11.18%, the “Chiral purity (%)” value ([2]; 4500 Lux, 30 days) was 99.243% and the Color and appearance ([2]; 4500 Lux, 30 days) was “White solid”. The Crystalline form ([2]; 4500 Lux, 30 days) was “Not changed”, the “Main peak purity (%)” value ([2]; 4500 Lux, 30 days) was 97.626% and the “Bromide ion content (%)” value ([2]; Initial, 0 days) was 11.75%. The “Chiral purity (%)” value ([2]; Initial, 0 days) was 99.298%, the Color and appearance ([2]; Initial, 0 days) was “White solid” and the Crystalline form ([2]; Initial, 0 days) was “Crystalline”. The “Main peak purity (%)” value ([2]; Initial, 0 days) was 97.689%, the “Stability (conclusion of influencing factor study)” value ([2]; illumination, 40° C. and 60° C., high humidities of 75% and 92.5%) was “good physical and chemical stabilities” and the “Chiral purity (%)” value ([3]; 25° C., 60% RH, Day 7) was 99.297%. The Color and appearance ([3]; 25° C., 60% RH, Day 7) was “White solid”, the Crystalline form ([3]; 25° C., 60% RH, Day 7) was “Not changed” and the “Main peak purity (%)” value ([3]; 25° C., 60% RH, Day 7) was 97.689%. For the same molecule, the “Chiral purity (%)” value ([3]; 25° C., 60% RH, Day 14) was 99.198%, the Color and appearance ([3]; 25° C., 60% RH, Day 14) was “White solid” and the Crystalline form ([3]; 25° C., 60% RH, Day 14) was “Not changed”. The “Main peak purity (%)” value ([3]; 25° C., 60% RH, Day 14) was 97.697%, the “Bromide ion content (%)” value ([3]; 25° C., 60% RH, Month 1) was 11.20% and the “Chiral purity (%)” value ([3]; 25° C., 60% RH, Month 1) was 99.255%. For the same molecule, the Color and appearance ([3]; 25° C., 60% RH, Month 1) was “White solid”, the Crystalline form ([3]; 25° C., 60% RH, Month 1) was “Not changed” and the “Main peak purity (%)” value ([3]; 25° C., 60% RH, Month 1) was 97.649%. For the same molecule, the “Bromide ion content (%)” value ([3]; 25° C., 60% RH, Month 2) was 11.05%, the “Chiral purity (%)” value ([3]; 25° C., 60% RH, Month 2) was 99.363% and the Color and appearance ([3]; 25° C., 60% RH, Month 2) was “White solid”. The Crystalline form ([3]; 25° C., 60% RH, Month 2) was “Not changed”, the “Main peak purity (%)” value ([3]; 25° C., 60% RH, Month 2) was 97.661% and the “Chiral purity (%)” value ([3]; 25° C., 60% RH, Month 3) was 99.283%. The Color and appearance ([3]; 25° C., 60% RH, Month 3) was “White solid”, the Crystalline form ([3]; 25° C., 60% RH, Month 3) was “Not changed” and the “Main peak purity (%)” value ([3]; 25° C., 60% RH, Month 3) was 97.552%. The “Bromide ion content (%)” value ([3]; 25° C., 60% RH, Month 6) was 11.82%, the “Chiral purity (%)” value ([3]; 25° C., 60% RH, Month 6) was 99.228% and the Color and appearance ([3]; 25° C., 60% RH, Month 6) was “White solid”. The Crystalline form ([3]; 25° C., 60% RH, Month 6) was “Not changed”, the “Main peak purity (%)” value ([3]; 25° C., 60% RH, Month 6) was 96.981% and the “Chiral purity (%)” value ([3]; 40° C., 75% RH, Day 7) was 99.295%. The Color and appearance ([3]; 40° C., 75% RH, Day 7) was “White solid”, the Crystalline form ([3]; 40° C., 75% RH, Day 7) was “Not changed” and the “Main peak purity (%)” value ([3]; 40° C., 75% RH, Day 7) was 97.661%. For the same molecule, the “Chiral purity (%)” value ([3]; 40° C., 75% RH, Day 14) was 99.174%, the Color and appearance ([3]; 40° C., 75% RH, Day 14) was “White solid” and the Crystalline form ([3]; 40° C., 75% RH, Day 14) was “Not changed”. The “Main peak purity (%)” value ([3]; 40° C., 75% RH, Day 14) was 97.660%, the “Bromide ion content (%)” value ([3]; 40° C., 75% RH, Month 1) was 11.49% and the “Chiral purity (%)” value ([3]; 40° C., 75% RH, Month 1) was 99.262%. For the same molecule, the Color and appearance ([3]; 40° C., 75% RH, Month 1) was “White solid”, the Crystalline form ([3]; 40° C., 75% RH, Month 1) was “Not changed” and the “Main peak purity (%)” value ([3]; 40° C., 75% RH, Month 1) was 97.558%. The “Bromide ion content (%)” value ([3]; 40° C., 75% RH, Month 2) was 10.93%, the “Chiral purity (%)” value ([3]; 40° C., 75% RH, Month 2) was 99.328% and the Color and appearance ([3]; 40° C., 75% RH, Month 2) was “White solid”. For the same molecule, the Crystalline form ([3]; 40° C., 75% RH, Month 2) was “Not changed”, the “Main peak purity (%)” value ([3]; 40° C., 75% RH, Month 2) was 97.561% and the “Chiral purity (%)” value ([3]; 40° C., 75% RH, Month 3) was 99.275%. For the same molecule, the Color and appearance ([3]; 40° C., 75% RH, Month 3) was “White solid”, the Crystalline form ([3]; 40° C., 75% RH, Month 3) was “Not changed” and the “Main peak purity (%)” value ([3]; 40° C., 75% RH, Month 3) was 97.259%. For the same molecule, the “Bromide ion content (%)” value ([3]; 40° C., 75% RH, Month 6) was 11.91%, the “Chiral purity (%)” value ([3]; 40° C., 75% RH, Month 6) was 99.199% and the Color and appearance ([3]; 40° C., 75% RH, Month 6) was “White solid”. The Crystalline form ([3]; 40° C., 75% RH, Month 6) was “Not changed”, the “Main peak purity (%)” value ([3]; 40° C., 75% RH, Month 6) was 96.412% and the “Bromide ion content (%)” value ([3]; Initial, 0) was 11.75%. For the same molecule, the “Chiral purity (%)” value ([3]; Initial, 0) was 99.298%, the Color and appearance ([3]; Initial, 0) was “White solid” and the Crystalline form ([3]; Initial, 0) was “Crystalline”. The “Main peak purity (%)” value ([3]; Initial, 0) was 97.689% and the “Stability (conclusion of long-term/accelerated study)” value ([3]; long term and acceleration, 6 months) was “good physical and chemical stability”.

With `NC(=O)C[C@H](c1ccc(S(=O)(=O)CC2CC2)cc1)c1nc2cc(-c3ccccc3OC(F)F)c(Cl)cc2[nH]1.O=C(O)/C=C\C(=O)O` the “Crystalline form before and after DVS (XRPD comparison)” value [1] was “crystalline form did not change during DVS”, the DVS weight change [1] was 1.731% and the Hygroscopicity [1] was “slightly hygroscopic”. For the same molecule, the Vapor sorption [1, 4] was “about 1.809%”, the Vapor sorption [1, 5] was “about 3.077%” and the Vapor sorption [1, 6] was “about 1.438%”.
